According to patent EP2241555A1, “New RAC1 inhibitors as potential pharmacological agents for heart failure treatment” (UNIVERSITA' DEGLI STUDI DI MILANO, priority 2009, dated 2010):
Where two headings read alike, the source gives them in different places.

Experiments:
HL-1 = assay: Resazurine cytotoxicity assay (metabolic activity), HL-1; assay type: cell-based, mouse; settings: for MVC / EC50: HL-1, 24 h; for MVC: maximal viability concentration; for Cytotoxicity-Classification: HL-1, 24 h exposure; for EC50: Mus musculus, metabolic activity
Method: (§1) For a pre-screening of the compounds they were first tested in human hepatocellular carcinoma cells (HepG2 cells)for 24 h and to gain further information about the cytotoxic potential more specific target tissues like the mouse cardiomyocytes HL-1 and primary rat cardiomyocytes were used additionally. […] The toxicity classification has been determined by using drugs currently utilized in clinic with known toxicity profile

HL-1 cells = assay: Apoptosis of ischemic HL-1 cardiomyocytes (TUNEL assay, flow cytometer); assay type: cell-based, mouse; settings: 100 µM; for Relative rate of apoptosis normalised to control [%]: 8 h ischemia (glucose deficient medium + hydrogen peroxide), 8h Ischemia alone 701.6, 8h Control 100
Method: To establish a cardiomyocytes based apoptosis assay, which mimics the post-ischemic damage observed after myocardial infarction, we have utilized a cardiac muscle cell line, HL-1 cells, derived from the AT-1 mouse atrial cardiomyocyte tumor lineage. The HL-1 cells were incubated in glucose deficient medium in the presence of hydrogen peroxide and either in presence or absence of compounds of the invention Apoptosis rate of ischemic HL-1 cells was normalised to the apoptosis rate of the 8h control cells under non-ischemic conditions, thus incubated with normal concentration of glucose in the absence of hydrogen peroxide. Both non-ischemic and ischemic HL-1 cultures were harvested after 8 hours. […] The apoptotic rates were then evaluated by TUNEL assay, a method for detecting DNA strand breaks in apoptotic cells by flow cytometer The solvent of the compounds, i.e DMSO, has no influence on the apoptosis rate. […] Effect of newly synthesized compounds with Rac1 inhibitory activity on apoptosis rate in HL-1 cells normalized to control (TUNEL-assay) The data are representative of two experiments.

[1] = Caco2 monolayer permeation; assay type: in vitro ADME, human; settings: human, start concentration 50 µM; for Papp at 90 min, 50 µM: Caco-2, Caco2 monolayers
Method: (§2) The permeation characteristics of the Rac1 inhibitors were determined first in the artificial system PAMPA (Parallel Artificial Membrane Permeability Assay) which uses a membrane covered with a lipid to simulate the lipid bilayer of various cell types, including intestinal epithelium and second in vitro across Caco2, a human colon carcinoma cell line seeded as monolayers onto polycarbonate membranes. The PAMPA is able to predict the ability of a compound to permeate by a passive transcellular transport through an artificial lipid layer assembled on a membrane and also allows a classification into low (flux <20%), medium (20%≤ flux ≤70%), and high (flux >70%) absorbing substances. The Caco2 assay provides a well-established in vitro model to predict the human intestinal absorption.

Caco2 = Caco2 monolayer permeation; assay type: in vitro ADME, human; settings: Caco2 monolayers, 90 min, start concentration 50 µM
Method: as §2

[2] = system: major drug metabolising CYPs (including CYP2C19, CYP2D6, CYP3A4); assay: Inhibition of major drug metabolising CYP activities
From the text: The probe metabolites as in experimental For CYP2C19, a=omeprazole demethylation and b=omeprazole 5-hydroxylation; for CYP3A4, a=omeprazole 3-hydroxylation, b= omeprazole sulfonation, c=testosterone 6β-hydroxylation and d= midazolam 1'-hydroxylation.

[3] = PAMPA (Parallel Artificial Membrane Permeability Assay); assay type: in vitro ADME; settings: start concentration 250 µM, diffusion period 16 h
Method: as §2
The flux rate of the compounds of the invention and the reference NSC23766 was measured from a donor compartment to an acceptor compartment across the lipid layer at a start concentration of 250 µM over a diffusion period of 16 h.

[4] = system: primary rat cardiomyocytes; assay: Resazurine cytotoxicity assay (metabolic activity), primary rat cardiomyocytes; assay type: cell-based; settings: for MVC / EC50: 24 h; for MVC: maximal viability concentration; for Cytotoxicity-Classification: 24 h exposure; for EC50: Cardiomyocyte, metabolic activity
Method: as §1

CYP2D6 = CYP2D6 (Homo sapiens, UniProt P10635); assay: Inhibition of CYP2D6 activity; assay type: biochemical; settings: read-out: CYP2D6 activity inhibited by
[5] = Substrate depletion in human liver microsomes and in vitro - in vivo extrapolation; assay type: in vitro ADME; settings: for CLh: hepatic clearance; for CLh / CLint / CLtot: extrapolated to human from substrate depletion (1 µM, 60 min); for half-life at 1 µM: human, human liver microsomes; for CLint: intrinsic clearance (whole liver); for CLtot: total (systemic) clearance
Method: The remaining peak areas after 60 minutes incubation was also determined after incubation with increasing concentrations of compounds CWB021/01039 and CWB024/02054. […] The disappearances for both study compounds were also clearly cofactor dependent and thus metabolism related Calculations of pharmacokinetic (PK) parameters on the basis of substrate depletion for both study compounds (1 µM, 60 min time point) in human liver microsomes are shown in Table 6. Table 6. Kinetic in vitro - in vivo extrapolations of study compound clearances and half-lifes in human, wherein: intrinsic clearance (whole liver) = CLint; hepatic clearance = CLH; total (systemic) clearance = CLtotal; half-life = t1/2.

[6] = tissue homogenate, 60 min, 10 µM
Method: (§3) The basic incubation mixture with total volume of 500 µl consisted of the following components. 100 µl liver homogenate, compound in DMSO (dimethyl sulfoxide) and 1 mM NADPH (reduced nicotinamide adenine dinucleotide phosphate), 1 mM UDPGA (uridine 5'-diphosphoglucuronic acid), 1 mM PAPS (3'-phosphoadenosine-5'-phosphosulfate) and 1 mM GSH (glutathione). The substrate concentration used was 10 µM. Two parallel incubations, one with cofactors and one without, were made. Final DMSO concentration in the incubation was 1 µM. […] Reaction was started by addition of a cofactor mixture and stopped by adding 250 µl of ice-cold acetonitrile.

HepG2 cells = assay: Resazurine cytotoxicity assay (metabolic activity), HepG2; assay type: cell-based, human; settings: for MVC / EC50: HepG2, 24 h; for MVC: maximal viability concentration; for Cytotoxicity-Classification: HepG2, 24 h exposure; for EC50: Homo sapiens, metabolic activity, read-out: EC50
Method: as §1

Rac1 [7] = biological target: T1, Rac1 (Homo sapiens, UniProt P63000); assay: G-LISA assay of intracellular Rac1-GTP in PDGF-BB stimulated human smooth muscle cells; assay type: cell-based; settings: for remaining activity at 50 µM: Concentration 50 µm, 4 hours incubation, then PDGF-BB 10 ng/ml, Rac1-GTP detected relative to control (100), lower = more inhibition, read-out: Rac1 inhibitory activity (% vs control); for inhibitory action on Rac1 activity: G-LISA, 50 µM, statement in words
T1 construct: endogenous in cells; host or cells: human cultured smooth muscle cells, stimulated with PDGF-BB
From the text: The intracellular amount of Rac1-GTP has been determined using the GLISA™ assay (Cytoskeleton, Inc). The GLISA™ assay uses a 96-well plate coated with RBD domain of Rac1-family effector protein PAK1. […] A significant inhibition on Rac1 activity should decrease the intracellular levels of Rac1-GTP and therefore reduce the percentage of Rac1-GTP detected compared to control untreated cells.

[8] = Metabolic stability and metabolite identification in liver homogenates with cofactors (LC/MS); settings: liver homogenate with cofactors, 10 µM substrate, 60 min
Method: as §3

Rac1 [9] = biological target: T1, Rac1; assay: Classic pull down assay of Rac1-GTP in human cells; assay type: cell-based; settings: 50 and 100 µM; Figure 2
Method: Thus, a classic pull down assay was also performed in human cells incubated with 50 and 100 µM concentration of CWB024/02054

[10] = 0.1 µM initial substrate concentration
[11] = 1 µM initial substrate concentration
[12] = 10 µM initial substrate concentration

Sequence of CYP2D6 (P10635 whole entry): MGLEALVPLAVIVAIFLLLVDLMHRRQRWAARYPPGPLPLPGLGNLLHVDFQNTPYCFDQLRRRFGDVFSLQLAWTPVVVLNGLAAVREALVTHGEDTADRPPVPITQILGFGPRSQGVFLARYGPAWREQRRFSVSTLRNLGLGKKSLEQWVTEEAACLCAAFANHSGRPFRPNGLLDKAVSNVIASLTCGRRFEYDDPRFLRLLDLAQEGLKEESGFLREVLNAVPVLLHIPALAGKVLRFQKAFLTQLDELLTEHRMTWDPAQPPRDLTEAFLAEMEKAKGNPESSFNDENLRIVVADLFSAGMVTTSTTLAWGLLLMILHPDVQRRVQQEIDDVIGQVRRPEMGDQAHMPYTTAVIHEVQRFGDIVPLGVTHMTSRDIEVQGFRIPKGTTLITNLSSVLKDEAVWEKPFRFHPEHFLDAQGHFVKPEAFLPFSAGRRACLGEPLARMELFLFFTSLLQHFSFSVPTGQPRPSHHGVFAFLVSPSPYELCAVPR

CCN(CC)CCCC(C)Nc1nccc(Nc2ccc3[nH]c(C)cc3c2)n1 (stereo not shown) [CWB021/01039, N2-(4-Diethylamino-1-methyl-butyl)-N4-(2-methyl-1H-indol-5-yl)-pyrimidine-2,4-diamine]
MVC (HL-1): 31.2 µM | Cytotoxicity-Classification (HL-1): ++ (10 µM < EC50 ≤ 100 µM, medium (++)) | EC50 (HL-1): 24 µM | Relative rate of apoptosis normalised to control [%] (HL-1 cells): 511.6% | Papp at 90 min, 50 µM [1]: 17.1 ± 12.5 ×10⁻⁶ cm/s | Caco2 Classification (Caco2): high (compounds with a Papp >10 are predicted to be well absorbed (70 - 100%)) | IC50 [2]: > 10 µM | PAMPA classification [3]: low (low (flux <20%)) | PAMPA flux [%] ± SD [3]: 5±1% | MVC [4]: 31.3 µM | Cytotoxicity-Classification [4]: ++ (10 µM < EC50 ≤ 100 µM, medium (++)) | EC50 [4]: 13 µM | inhibition at 10 µM (CYP2D6): 35% | remaining peak area after 60 minutes incubation [5, 10]: 69% | remaining peak area after 60 minutes incubation [5, 11]: 81% | remaining peak area after 60 minutes incubation [5, 12]: 95% | CLh [5]: 15.14 L/h | half-life at 1 µM [5]: 7.3 h | CLint [5]: 0.31 L/min | CLtot [5]: 15.32 L/h | remaining LC/MS peak area (relative to 0 min incubation samples, %) [6]: 33-41% | MVC (HepG2 cells): 7.8 µM | Cytotoxicity-Classification (HepG2 cells): ++ (10 µM < EC50 ≤ 100 µM, medium (++)) | EC50 (HepG2 cells): 21 µM | remaining activity at 50 µM (Rac1 [7]): 81.1% | inhibitory action on Rac1 activity (Rac1 [7]): significant end efficient inhibitory action

CCN(CC)CCCC(C)Nc1nccc(Nc2cnc3ccccc3c2)n1 (stereo not shown) [CWB022/02052, N2-(4-Diethylamino-1-methyl-butyl)-N4-quinolin-3-yl-pyrimidine-2.4-diamine]
MVC (HL-1): 31.2 µM | Cytotoxicity-Classification (HL-1): ++ (10 µM < EC50 ≤ 100 µM, medium (++)) | EC50 (HL-1): 60 µM | Relative rate of apoptosis normalised to control [%] (HL-1 cells): 607.8% | Papp at 1.5 h, 50 µM ([1]; Caco-2, Caco2 monolayers, 90 min): 8.9 ± 2.7 ×10⁻⁶ cm/s | Caco2 Classification (Caco2): medium (compounds with Papp between 1 and 10 are moderately absorbed (20 - 70%)) | PAMPA classification [3]: medium (medium (20%≤ flux ≤70%)) | PAMPA flux [%] ± SD [3]: 34±4% | MVC [4]: 7.8 µM | Cytotoxicity-Classification [4]: ++ (10 µM < EC50 ≤ 100 µM, medium (++)) | EC50 [4]: 15 µM | remaining LC/MS peak area (relative to 0 min incubation samples, %) [8]: 5% | MVC (HepG2 cells): 7.8 µM | Cytotoxicity-Classification (HepG2 cells): ++ (10 µM < EC50 ≤ 100 µM, medium (++)) | EC50 (HepG2 cells): 32 µM | inhibitory action on Rac1 activity (Rac1 [7]): significant end efficient inhibitory action

CCN(CC)CCCC(C)Nc1nccc(Nc2ccc3[nH]ccc3c2)n1 (stereo not shown) [CWB024/02054, N2-(4-Diethylamino-1-methyl-butyl)-N4-(1H-indol-5-yl)-pyrimidine-2,4-diamine]
MVC (HL-1): 7.8 µM | Cytotoxicity-Classification (HL-1): ++ (10 µM < EC50 ≤ 100 µM, medium (++)) | EC50 (HL-1): 56 µM | Relative rate of apoptosis normalised to control [%] (HL-1 cells): 319.4% | reduction of relative apoptosis (HL-1 cells; versus 8 h ischemia): approximately 50% | Papp at 90 min, 50 µM [1]: 32.1 ± 12.4 ×10⁻⁶ cm/s | Caco2 Classification (Caco2): high (compounds with a Papp >10 are predicted to be well absorbed (70 - 100%)) | IC50 [2]: > 10 µM | reduced the intracellular content of Rac1-GTP (Rac1 [9]): over 90% | PAMPA classification [3]: low (low (flux <20%)) | PAMPA flux [%] ± SD [3]: 6±2% | MVC [4]: 1.9 µM | Cytotoxicity-Classification [4]: ++ (10 µM < EC50 ≤ 100 µM, medium (++)) | EC50 [4]: 17 µM | inhibition at 10 µM (CYP2D6): 30% | remaining peak area after 60 minutes incubation [5, 10]: 76% | remaining peak area after 60 minutes incubation [5, 11]: 87% | remaining peak area after 60 minutes incubation [5, 12]: 86% | CLh [5]: 10.63 L/h | half-life at 1 µM [5]: 10.3 h | CLint [5]: 0.2 L/min | CLtot [5]: 10.81 L/h | remaining LC/MS peak area (relative to 0 min incubation samples, %) [6]: about 91% | MVC (HepG2 cells): 7.8 µM | Cytotoxicity-Classification (HepG2 cells): ++ (10 µM < EC50 ≤ 100 µM, medium (++)) | EC50 (HepG2 cells): 33 µM | remaining activity at 50 µM (Rac1 [7]): 58.3% | inhibitory action on Rac1 activity (Rac1 [7]): significant end efficient inhibitory action
